Results taken from patent US12252481B2, “Anti-viral compounds” (Aligos Therapeutics, Inc., priority 2021, dated 2025).
pEC50, pIC50: −log10 of the molar value. Where two headings read alike, the source gives them in different places.

Key:
SARS-Cov-2 3CLpro = molecular target: T1, SARS-Cov-2 3CLpro (Severe acute respiratory syndrome coronavirus 2, UniProt P0DTD1); assay: biochemical; settings: read-out: SARS-Cov-2 IC50 (class)
T1 construct: 3CLpro and HRV3C was added using a Multidrop Combi

HRV3C = molecular target: T2, HRV3C (Human rhinovirus 14, UniProt P03303); assay: biochemical; design: species or system HRV
T2 construct: 3CLpro and HRV3C was added using a Multidrop Combi
T2 sequence (P03303 1538-1719): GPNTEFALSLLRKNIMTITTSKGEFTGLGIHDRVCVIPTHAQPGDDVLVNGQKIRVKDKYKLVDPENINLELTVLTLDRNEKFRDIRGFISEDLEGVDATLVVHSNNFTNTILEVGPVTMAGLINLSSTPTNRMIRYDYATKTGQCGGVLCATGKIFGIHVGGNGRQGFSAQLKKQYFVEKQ

[1] = system: human beta-coronavirus OC43; assay: OC43 coronavirus antiviral assay in HeLa cells (cytopathic effect, cell-titer-glo); type: cell-based; settings: 6 days at 33° C., read-out: EC50 (class)
[2] = system: B.1.1.7 lineage SARS-CoV-2; assay: microbe, parasite or virus in culture; type: cell-based; settings: read-out: A549-dual_ACE2_TMPRSS2 (EC50)
human cathepsin L = molecular target: T3, human cathepsin L (Homo sapiens, UniProt P07711); assay: Cathepsin L assay (Z-FR-AMC fluorescence); type: biochemical; settings: 10 pM human cathepsin L, 30 mins preincubation, Z-FR-AMC 2 μM
T3 construct: purchased R&D Systems
T3 sequence (P07711 114-333): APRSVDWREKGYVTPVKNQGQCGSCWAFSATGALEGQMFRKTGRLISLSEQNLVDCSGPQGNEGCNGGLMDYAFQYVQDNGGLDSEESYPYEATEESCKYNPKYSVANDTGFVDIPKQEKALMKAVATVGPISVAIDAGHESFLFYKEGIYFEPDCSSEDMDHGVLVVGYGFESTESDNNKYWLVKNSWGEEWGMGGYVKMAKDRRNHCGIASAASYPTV
Procedure, shortened: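 IC50 values were taken from four-parameter fits of fluorescence read at 355/460 nm every 2 minutes for 30 minutes. The reaction started when 2 μM Z-FR-AMC was added. Before that, 10 pM human cathepsin L had been preincubated with inhibitor for 30 minutes.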

Vero E6-eGFP cells = settings: read-out: VeroE6 + CP (CC50), absence of virus, numeric values
[3] = system: A549-dual_ACE2_TMPRSS2 cells
HeLa cells [4] = assay: Cytotoxicity in HeLa cells without OC43 virus (cell-titer-glo); settings: HeLa cells without OC43 virus
[5] = system: SARS-CoV-2-GHB-03021/2020; type: cell-based; settings: read-out: VeroE6 + CP (EC50)
HeLa cells [6] = system: HeLa cells
[7] = HRV3C, 30 mins preincubation, SAMDI-MS, read-out: HRV IC50 (bound)
[8] = read-out: A549-dual_ACE2_TMPRSS2 (CC50), assay medium without virus, MTS, numeric values
[9] = 3CLpro, 30 mins preincubation, SAMDI-MS

SMILES	pIC50 (SARS-Cov-2 3CLpro)	pIC50 (HRV3C; [7])	pEC50 [1]	pEC50 [2]	pIC50 (human cathepsin L)	CC50 (Vero E6-eGFP cells) [µM]	CC50 [3, 8] [µM]	CC50 (HeLa cells [4]) [µM]	pEC50 [5]	pIC50 (SARS-Cov-2 3CLpro; [9])	CC50 (HeLa cells [6]) [µM]	pIC50 (HRV3C; HRV3C, 30 mins preincubation, SAMDI-MS, read-out: HRV IC50 (class))	CC50 (HeLa cells [4]; read-out: CC50 (class)) [µM]	pIC50 (HRV3C; read-out: HRV IC50 (bound))	CC50 [3] [µM]
CC(C)(C)[C@H](NC(=O)C(F)(F)F)C(=O)N1C[C@H]2[C@@H]([C@H]1C(=O)N[C@H](C#N)CC1Cn3ncnc3NC1=O)[C@H]1C=C[C@@H]2C1 (stereo partly drawn) [Compound 51, (1R,2S,3S,6R,7S)—N-[(1S)-1-cyano-2-{5-oxo-4H,6H,7H-[1,2,4]triazolo[1,5-α]pyrimidin-6-yl}ethyl]-4-[(2S)-3,3-dimethyl-2-(2,2,2-trifluoroacetamido)butanoyl]-4-azatricyclo[5.2.1.0^{2,6}]dec-8-ene-3-carboxamide]	> 7.70	< 5.00	6.00 to 7.00	5.00 to 6.00	≤ 5.00	> 50	> 10	> 100	–	–	–	–	–	–	–
C[C@@H](OC(C)(C)C)[C@H](NC(=O)C(F)(F)F)C(=O)N1C[C@H]2[C@@H]([C@H]1C(=O)N[C@H](C#N)C[C@@H]1CCNC1=O)[C@H]1C=C[C@@H]2C1 [Example 3, (1R,2S,3S,6R,7S)-4-[(2S,3R)-3-(tert-butoxy)-2-(2,2,2-trifluoroacetamido)butanoyl]-N-[(1S)-1-cyano-2-[(3S)-2-oxopyrrolidin-3-yl]ethyl]-4-azatricyclo[5.2.1.0^{2,6}]dec-8-ene-3-carboxamide]	> 7.70	< 5.00	> 7.00	> 7.00	≤ 5.00	> 50	> 10	> 100	> 7.00	–	–	–	–	–	–
C=C1C[C@@H]2C[C@H]1[C@H]1[C@@H]2CN(C(=O)[C@@H](NC(=O)C(F)(F)F)C(C)(C)C)[C@@H]1C(=O)N[C@H](C#N)C[C@@H]1CCNC1=O [Compound 62, (1S,2S,3S,6R,7S)—N-[(1S)-1-cyano-2-[(3S)-2-oxopyrrolidin-3-yl]ethyl]-4-[(2S)-3,3-dimethyl-2-(2,2,2-trifluoroacetamido)butanoyl]-9-methylidene-4-azatricyclo[5.2.1.0^{2,6}]decane-3-carboxamide]	> 7.70	< 5.00	> 7.00	> 7.00	≤ 5.00	–	> 10	> 100	–	–	–	–	–	–	–
C#CC(C)(C)[C@H](NC(=O)C1(F)CC1)C(=O)N1C[C@H]2[C@@H]([C@H]1C(=O)N[C@H](C#N)C[C@@H]1CCNC1=O)[C@H]1C=C[C@@H]2C1 [Compound 63, (1R,2S,3S,6R,7S)—N-[(1S)-1-cyano-2-[(3S)-2-oxopyrrolidin-3-yl]ethyl]-4-[(2S)-2-[(1-fluorocyclopropyl)formamido]-3,3-dimethylpent-4-ynoyl]-4-azatricyclo[5.2.1.0^{2,6}]dec-8-ene-3-carboxamide]	–	< 5.00	> 7.00	> 7.00	≤ 5.00	–	> 10	–	–	> 7.70	> 100	–	–	–	–
CC(C)(C1CC1)[C@H](NC(=O)C(F)(F)F)C(=O)N1C[C@H]2[C@@H]([C@H]1C(=O)N[C@H](C#N)C[C@@H]1CCNC1=O)[C@H]1C=C[C@@H]2C1 [Compound 69, (1R,2S,3S,6R,7S)—N-[(1S)-1-cyano-2-[(3S)-2-oxopyrrolidin-3-yl]ethyl]-4-[(2S)-3-cyclopropyl-3-methyl-2-(2,2,2-trifluoroacetamido)butanoyl]-4-azatricyclo[5.2.1.0^{2,6}]dec-8-ene-3-carboxamide]	> 7.70	< 5.00	> 7.00	> 7.00	≤ 5.00	–	> 10	> 100	–	–	–	–	–	–	–
C#CC(C)(C)[C@H](NC(=O)C(F)(F)F)C(=O)N1C[C@H]2[C@@H]([C@H]1C(=O)N[C@H](C#N)C[C@@H]1CCNC1=O)[C@H]1C=C[C@@H]2C1 [Example 7, (1R,2S,3S,6R,7S)—N-[(1S)-1-cyano-2-[(3S)-2-oxopyrrolidin-3-yl]ethyl]-4-[(2S)-3,3-dimethyl-2-(2,2,2-trifluoroacetamido)pent-4-ynoyl]-4-azatricyclo[5.2.1.0^{2,6}]dec-8-ene-3-carboxamide]	> 7.70	< 5.00	> 7.00	> 7.00	≤ 5.00	> 50	> 10	> 100	> 7.00	–	–	–	–	–	–
CC(C)(C)[C@H](NC(=O)C(F)(F)F)C(=O)N1C[C@H]2[C@@H]([C@H]1C(=O)NC(C[C@@H]1CCNC1=O)C(=O)C(=O)NC1CC1)[C@H]1C=C[C@@H]2C1 (stereo partly drawn) [Example 10, N-cyclopropyl-3-{[(1R,2S,3S,6R,7S)-4-[(2S)-3,3-dimethyl-2-(2,2,2-trifluoroacetamido)butanoyl]-4-azatricyclo[5.2.1.0^{2,6}]dec-8-en-3-yl]formamido}-2-oxo-4-[(3S)-2-oxopyrrolidin-3-yl]butanamide]	> 7.70	–	6.00 to 7.00	–	≤ 5.00	> 50	> 10	–	–	–	–	6.70 to 7.70	> 10	–	–
CC(C)(C)[C@H](NC(=O)C(F)(Cl)Cl)C(=O)N1C[C@H]2[C@@H]([C@H]1C(=O)N[C@H](C#N)C[C@@H]1CCNC1=O)[C@H]1C=C[C@@H]2C1 [Compound 48, (1R,2S,3S,6R,7S)—N-[(1S)-1-cyano-2-[(3S)-2-oxopyrrolidin-3-yl]ethyl]-4-[(2S)-2-(2,2-dichloro-2-fluoroacetamido)-3,3-dimethylbutanoyl]-4-azatricyclo[5.2.1.0^{2,6}]dec-8-ene-3-carboxamide]	> 7.70	< 5.00	> 7.00	> 7.00	≤ 5.00	> 50	> 10	> 100	> 7.00	–	–	–	–	–	–
CC1(C(=O)N[C@H](C(=O)N2C[C@H]3[C@@H]([C@H]2C(=O)N[C@H](C#N)C[C@@H]2CCNC2=O)[C@H]2C=C[C@@H]3C2)C(C)(C)C)CC1 [Compound 47, (1R,2S,3S,6R,7S)—N-[(1S)-1-cyano-2-[(3S)-2-oxopyrrolidin-3-yl]ethyl]-4-[(2S)-3,3-dimethyl-2-[(1-methylcyclopropyl)formamido]butanoyl]-4-azatricyclo[5.2.1.0^{2,6}]dec-8-ene-3-carboxamide]	–	< 5.00	6.00 to 7.00	–	≤ 5.00	> 50	> 10	–	–	6.70 to 7.70	> 100	–	–	–	–
CC(C)(C)[C@H](NC(=O)c1cnccn1)C(=O)N1C[C@H]2[C@@H]([C@H]1C(=O)N[C@H](C#N)C[C@@H]1CCNC1=O)[C@H]1C=C[C@@H]2C1 [Example 6, (1R,2S,3S,6R,7S)—N-[(1S)-1-cyano-2-[(3S)-2-oxopyrrolidin-3-yl]ethyl]-4-[(2S)-3,3-dimethyl-2-(pyrazin-2-ylformamido)butanoyl]-4-azatricyclo[5.2.1.0^{2,6}]dec-8-ene-3-carboxamide]	6.70 to 7.70	–	> 7.00	5.00 to 6.00	≤ 5.00	–	–	–	5.00 to 6.00	–	> 100	–	–	< 5.00	> 10
CC(C)(C)[C@H](NC(=O)C(F)(F)F)C(=O)N1C[C@@H]2[C@H]3C[C@@H]([C@@H]2[C@H]1C(=O)N[C@H](C#N)C[C@@H]1CCNC1=O)C(F)(F)C3 [Compound 61, (1S,2R,3S,6R,7S)—N-[(1S)-1-cyano-2-[(3S)-2-oxopyrrolidin-3-yl]ethyl]-4-[(2S)-3,3-dimethyl-2-(2,2,2-trifluoroacetamido)butanoyl]-9,9-difluoro-4-azatricyclo[5.2.1.0^{2,6}]decane-3-carboxamide]	> 7.70	< 5.00	6.00 to 7.00	–	≤ 5.00	–	> 10	> 100	–	–	–	–	–	–	–
CC(C)(C)[C@H](NC(=O)C(F)(F)F)C(=O)N1C[C@@H]2[C@H]3C[C@@H]([C@@H]2[C@H]1C(=O)N[C@H](C#N)C[C@@H]1CCNC1=O)C1(CC1)C3 [Compound 60, (1′S,2′R,5′S,6′S,7′S)—N-[(1S)-1-cyano-2-[(3S)-2-oxopyrrolidin-3-yl]ethyl]-4′-[(2S)-3,3-dimethyl-2-(2,2,2-trifluoroacetamido)butanoyl]-4′-azaspiro[cyclopropane-1,8′-tricyclo[5.2.1.0^{2,6}]decane]-5′-carboxamide]	6.70 to 7.70	< 5.00	5.00 to 6.00	6.00 to 7.00	≤ 5.00	–	> 10	> 100	–	–	–	–	–	–	–
CC(C)(C)[C@H](NC(=O)C(F)(F)F)C(=O)N1C[C@@H]2[C@H]3C[C@@H]([C@@H]2[C@H]1C(=O)N[C@H](C#N)C[C@@H]1CCNC1=O)[C@H](F)C3 [Example 86, (1S,2R,3S,6R,7S,9R)—N-[(1S)-1-cyano-2-[(3S)-2-oxopyrrolidin-3-yl]ethyl]-4-[(2S)-3,3-dimethyl-2-(2,2,2-trifluoroacetamido)butanoyl]-9-fluoro-4-azatricyclo[5.2.1.0^{2,6}]decane-3-carboxamide]	> 7.70	< 6.30	> 7.00	> 7.00	≤ 5.00	–	> 10	> 100	–	–	–	–	–	–	–
